The numbers were not newly measured in US7029655B2, “Magnetic resonance imaging agents for in vivo labeling and detection of amyloid deposits” (California Institute of Technology, priority 2000, dated 2006), which cites them from elsewhere.

The conditions of this data set: thermodynamic stability of the Gd(III) chelate.

On to `O=C([O-])CN(CCN(CC(=O)[O-])CC(=O)[O-])CCN(CC(=O)[O-])CC(=O)[O-].[Gd+3]` [Gd(DTPA)^2−], for which the “stability constant (K) / formation constant, logK” value is on record as 22.4. Regarding `O=C([O-])CN1CCN(CC(=O)[O-])CCN(CC(=O)[O-])CCN(CC(=O)[O-])CC1.[Gd+3]` [Gd-DOTA], the “stability constant (K) / formation constant, logK” value is reported as 28.5.
